{"source": "patent US12161630B2", "about": "“Methods to control infection using new generation small molecule growth inhibitors” (priority 2017, dated 2024)", "key": {"Salmonella Albany": {"tested_on": "Salmonella Albany", "test": "MIC and MBC dose-response, serotype Albany", "assay_type": "cell-based, Salmonella enterica", "details": "MIC identical to MBC", "protocol": "(§1) An overnight Salmonella suspension was normalized at 0.05 OD600 (approximately 3.5×10^7 CFU/ml) with an adjusted M9 minimal broth medium (12.7 mM Na2HPO4 7H2O; 22 mM KH2PO4; 18.7 mM NH4Cl; 2 mM MgSO4; 0.1 mM CaCl2; 0.4% glucose; 0.05% casamino acids). 100 μL of the suspension plus 2 μl of SMs (200 μM) were transferred into each well of a sterile, non-treated, flat bottom 96-well plate. Bacteria alone (negative control, NC), 2% DMSO plus bacteria (DMSO control), 20 μg/ml chloramphenicol or 50 μg/ml kanamycin plus bacteria (positive controls, PC), and M9 medium only were used as control. Plates were incubated in a Sunrise™ Tecan kinetic microplate reader for 12 hrs at 37° C. and the optical density (OD) was measure at 600 nm as described above. Percentage of inhibition=(OD600 SM−OD600 NC)/(OD600 NC)×100. […] Cultures from wells showing no turbidimetric increase were transferred onto a XLT4 agar plate. Plates were incubated at 37° C. for 36 hrs.\n(§2) Screens were performed as described in the primary screen. The lowest SM concentration with a static effect was considered as the minimal inhibitory concentration (MIC) and the lowest SM concentration with a cidal effect was considered as the minimal bactericidal concentration (MBC)."}, "[1]": {"tested_on": "S. typhimurium WT internalized in Caco-2 cells", "test": "S. typhimurium intracellular survival in infected Caco-2 cells", "assay_type": "cell-based", "details": "S. Typhimurium-infected Caco-2 cells, 24 hrs treatment", "protocol": "Effect of the four SMs on S. typhimurium intracellular survival in cells lines: The ability of four SMs to clear S. typhimurium WT […] was evaluated using three cell lines (Caco-2 cells, HD11, and THP-1 cells). The Salmonella intracellular survival as assessed as described (13). A multiplicity of infection “MOI” of 10 was used. Infected cells were treated with 1 μl of SMs (final concentration ranged between 100 μM and 6.25 μM) at 37° C. for 24 hrs in humidified, 5% CO2 incubator. Following incubation, cells were washed once with 150 μl of 1×PBS, lysed with 0.1% Triton-100X, serial ten-fold diluted in 1×PBS, and plated on agar plate. Plates were incubated at 37° C. for 24 hrs to determine the intracellular survival. Cells not infected and not treated, and cells infected and treated with 2% DMSO were used as controls."}, "Salmonella Newport": {"tested_on": "Salmonella Newport", "test": "MIC and MBC dose-response, serotype Newport", "assay_type": "cell-based, Salmonella enterica", "details": "MIC identical to MBC", "protocol": "as §1, §2"}, "Salmonella Enteritidis": {"tested_on": "Salmonella Enteritidis", "test": "MIC and MBC dose-response, serotype Enteritidis", "assay_type": "cell-based, Salmonella enterica", "details": "MIC identical to MBC", "protocol": "as §1, §2"}, "Salmonella Anatum": {"tested_on": "Salmonella Anatum", "test": "MIC and MBC dose-response, serotype Anatum", "assay_type": "cell-based, Salmonella enterica", "details": "MIC identical to MBC", "protocol": "as §1, §2"}, "Salmonella Saint-Paul": {"tested_on": "Salmonella Saint-Paul", "test": "MIC and MBC dose-response, serotype Saint-Paul", "assay_type": "cell-based", "details": "MIC identical to MBC", "protocol": "as §1, §2"}, "chicken cecal microbiota": {"tested_on": "chicken cecal microbiota", "test": "Cecal microbiota 16S rRNA sequencing of SM-treated infected chickens", "assay_type": "in vivo, broiler chickens", "details": "compared to DMSO group (P<0.01)", "protocol": "DNA extraction and sequencing: Microbiota diversity and abundance were investigated using the second cecum directly stored in −80° C. Genomic DNA was extracted using the PureLink Microbiome DNA Purification Kit (Life Technologies, Invitrogen Corp.), combined with RNAse treatment (10 units/hour). About 0.15 g to 0.20 g of cecum content was processed according to manufacturer's instructions. After quality control with electrophoresis and nanodrop, extracted DNA samples were subjected for 16S rRNA V4-V5 variable region sequencing. As a first step of targeted sequencing, amplicon libraries were prepared by using Phusion® High-Fidelity PCR Kit (New England Biolabs Inc, Ipswich, MA) in a 96-well plate. 25 μL of PCR reactions were prepared using 5 μl (5×) of PCR buffer, 4 μl (5 ng/μl) of DNA sample, and 2.5 μl (2 μM) primer, 0.5 μl (10 mM) dNTPs, 0.2 μl of enzyme, and nuclease free water to final volume. The barcoded primers targeted the V4-V5 variable region. […] Sample concentrations were measured, and equal concentration of all samples were pooled into one flow cell and sequenced using Illumina MiSeq 300-base, paired-end kit at the Molecular and Cellular Imaging Center (Ohio Agricultural Research & Development Center, Wooster, OH).\nBioinformatics analyses: After sequencing, a quality control of the raw reads was performed using FastQC (Babraham Bioinformatics, Cambridge, USA). […] Details concerning the parameters used are described in mcbl.readthedocs.io/en/latest/mcbl-tutorials-AD-clean.html. […] Then samples were processed using Quantitative Insights Into Microbial Ecology (QIIME) software version 1.9 (16). Operational Taxonomy Units (OTUs) were determined by clustering reads against Greengenes 16S reference dataset (2013-08 release) at a 97% identity using open picking reference OTU (pick_open_reference_otus.py) method using default parameters, except setting minimum OTU size to 10. […]"}, "Salmonella Muenchen": {"tested_on": "Salmonella Muenchen", "test": "MIC and MBC dose-response, serotype Muenchen", "assay_type": "cell-based, Salmonella enterica", "details": "MIC identical to MBC", "protocol": "as §1, §2"}}, "data": [{"smiles": "CC1CCC(C(C)C)C(OC(=O)Cn2c[n+](CC(=O)OC3CC(C)CCC3C(C)C)c3ccccc32)C1.[Cl-]", "note": "(stereo not shown) [SM1, 1,3-bis{2-[(2-isopropyl-5-methylcyclohexyl)oxy]-2-oxoethyl}-1H-3,1-benzimidazol-3-ium chloride]", "values": [{"measurement": "MIC/MBC", "setting": "Salmonella Albany", "result": 100, "unit": "µM"}, {"measurement": "MBC (μm), Caco-2 cells", "setting": "[1]", "result": 25, "unit": "µM"}, {"measurement": "MIC/MBC", "setting": "Salmonella Newport", "result": 100, "unit": "µM"}, {"measurement": "MIC/MBC", "setting": "Salmonella Enteritidis", "result": 100, "unit": "µM"}, {"measurement": "MIC/MBC", "setting": "Salmonella Anatum", "result": 100, "unit": "µM"}, {"measurement": "MIC/MBC", "setting": "Salmonella Saint-Paul", "result": 100, "unit": "µM"}, {"measurement": "abundance of Salmonella OTUs in ceca", "setting": "chicken cecal microbiota", "result": "reduction"}, {"measurement": "MIC/MBC", "setting": "Salmonella Muenchen", "result": 100, "unit": "µM"}]}, {"smiles": "CCCCCCCCCCCCCCCC[n+]1ccn(CC#N)c1.[Cl-]", "note": "[SM3, 1-(cyanomethyl)-3-hexadecyl-1H-imidazol-3-ium chloride]", "values": [{"measurement": "MIC/MBC", "setting": "Salmonella Albany", "result": 25, "unit": "µM"}, {"measurement": "MBC (μm), Caco-2 cells", "setting": "[1]", "result": 50, "unit": "µM"}, {"measurement": "MIC/MBC", "setting": "Salmonella Newport", "result": 50, "unit": "µM"}, {"measurement": "MIC/MBC", "setting": "Salmonella Enteritidis", "result": 25, "unit": "µM"}, {"measurement": "MIC/MBC", "setting": "Salmonella Anatum", "result": 25, "unit": "µM"}, {"measurement": "MIC/MBC", "setting": "Salmonella Saint-Paul", "result": 50, "unit": "µM"}, {"measurement": "MIC/MBC", "setting": "Salmonella Muenchen", "result": 50, "unit": "µM"}]}, {"smiles": "CCOc1cc(/C=N/N=C(N)N)ccc1OCc1ccc(Cl)cc1", "note": "[SM5, N″-{4-[(4-chlorobenzyl)oxy]-3-ethoxybenzylidene}carbonohydrazonic diamide]", "values": [{"measurement": "MIC/MBC", "setting": "Salmonella Albany", "result": 100, "unit": "µM"}, {"measurement": "MBC (μm), Caco-2 cells", "setting": "[1]", "result": 12.5, "unit": "µM"}, {"measurement": "MIC/MBC", "setting": "Salmonella Newport", "result": 50, "unit": "µM"}, {"measurement": "MIC/MBC", "setting": "Salmonella Enteritidis", "result": 50, "unit": "µM"}, {"measurement": "MIC/MBC", "setting": "Salmonella Anatum", "result": 50, "unit": "µM"}, {"measurement": "MIC/MBC", "setting": "Salmonella Saint-Paul", "result": 50, "unit": "µM"}, {"measurement": "abundance of Salmonella OTUs in ceca", "setting": "chicken cecal microbiota", "result": "reduced abundance"}, {"measurement": "MIC/MBC", "setting": "Salmonella Muenchen", "result": 50, "unit": "µM"}]}, {"smiles": "CCCCCCCCCCCCCCCCn1c[n+](C)c2ccccc21.[Br-]", "note": "[SM4, 1-hexadecyl-3-methyl-1H-3,1-benzimidazol-3-ium bromide]", "values": [{"measurement": "MIC/MBC", "setting": "Salmonella Albany", "result": 10, "unit": "µM"}, {"measurement": "MBC (μm), Caco-2 cells", "setting": "[1]", "result": 25, "unit": "µM"}, {"measurement": "MIC/MBC", "setting": "Salmonella Newport", "result": 25, "unit": "µM"}, {"measurement": "MIC/MBC", "setting": "Salmonella Enteritidis", "result": 10, "unit": "µM"}, {"measurement": "MIC/MBC", "setting": "Salmonella Anatum", "result": 10, "unit": "µM"}, {"measurement": "MIC/MBC", "setting": "Salmonella Saint-Paul", "result": 10, "unit": "µM"}, {"measurement": "abundance of Salmonella OTUs in ceca", "setting": "chicken cecal microbiota", "result": "reduced abundance"}, {"measurement": "MIC/MBC", "setting": "Salmonella Muenchen", "result": 25, "unit": "µM"}]}]}
